# What was measured:
# Format in all cases: physicochemical
# [1] = Solubility measurement in ethyl methyl ketone; details: concentration in ethyl methyl ketone solution where the compound was completely dissolved
# Protocol: Ethyl methyl ketone was added dropwise to each of the compounds, and a concentration (% by mass) of the compound in the obtained ethyl methyl ketone solution in a case where the compound was completely dissolved in the solution was measured as “solubility”. It is intended that a higher numerical value of solubility indicates excellent solubility in ethyl methyl ketone.
# [2] = Evaluation of light resistance (residual rate after ultraviolet irradiation); details: 5 mg in acetonitrile (20 ml), 1 cm quartz cell, ultraviolet light 3 J/cm^2; residual rate by liquid chromatography
# Protocol: Each (5 mg) of the compounds was dissolved in acetonitrile (20 ml), sealed in a 1 cm quartz cell, and the quartz cell was irradiated with ultraviolet light under a condition of 3 J/cm^2 using EXECURE 3000-W manufactured by HOYA-SCHOTT CORPORATION, so that a residual rate of each compound was measured. Amounts (masses) of each compound before and after light irradiation were calculated using liquid chromatography. In Table 1, “A” represents a residual rate of equal to or greater than 80%, “B” represents a residual rate of equal to or greater than 50% and less than 80%, and “C” represents a residual rate of less than 50%.
# The residual rate is a ratio of an amount (mass) of a compound after light irradiation to an amount (mass) of the compound before light irradiation, and can be calculated by the following expression. Residual rate (%)=(amount of compound after light irradiation/amount of compound before light irradiation)×100
# [3] = Δn (refractive index anisotropy) measurement, wedge-shaped liquid crystal cell; details: at 550 nm and 30° C.; for compounds liable to crystallize, estimated from extrapolated values of mixtures with other liquid crystals
# Description: As a method of measuring the Δn, a method using a wedge-shaped liquid crystal cell described on page 202 of the Liquid Crystal Handbook (edited by Liquid Crystal Handbook Editing Committee, published by Maruzen Co., Ltd.) is generally used. In a case of a compound which is liable to crystallize, it is also possible to carry out evaluation with a mixture thereof with other liquid crystals and to estimate Δn from extrapolated values thereof.
# The Δn corresponds to a measured value at a wavelength of 550 nm at 30° C.
# Δn of each of the compounds was measured by a method using a wedge-shaped liquid crystal cell described on page 202 of the Liquid Crystal Handbook (edited by Liquid Crystal Handbook Editing Committee, published by Maruzen Co., Ltd.). In a case of the compound which is liable to crystallize, evaluation with a mixture thereof with other liquid crystals was carried out and Δn was estimated from extrapolated values thereof. The values in the table represent Δn's at 550 nm and 30° C.
SMILES,Solubility [1],Light resistance evaluation [2],Δn [3]
C=CC(=O)OCCCCOc1ccc(C#Cc2ccc(NC(=O)c3ccc(OCCCCOC(=O)C=C)cc3)cc2)cc1 [Compound a-1],5 % by mass,A (a residual rate of equal to or greater than 80%),0.289
C=CC(=O)OCCCCOc1ccc(C#Cc2ccc(NC(=O)c3ccc(OCCCCOC(=O)C=C)cc3)c(C)c2)cc1 [Compound a-2],23 % by mass,A (a residual rate of equal to or greater than 80%),0.280
C=CC(=O)OCCCCOc1ccc(C#Cc2ccc(NC(=O)c3ccc(OCCCCOC(=O)C=C)cc3)cc2C)cc1 [Compound a-3],19 % by mass,A (a residual rate of equal to or greater than 80%),0.282
C=CC(=O)OCCCCOc1ccc(C#Cc2ccc(NC(=O)c3ccc(OCCCCOC(=O)C=C)cc3)c(OC)c2)cc1 [Compound a-4],20 % by mass,A (a residual rate of equal to or greater than 80%),0.301
C=CC(=O)OCCCCOc1ccc(C#Cc2ccc(NC(=O)c3ccc(OCCCCOC(=O)C=C)cc3)c(F)c2)cc1 [Compound a-5],11 % by mass,A (a residual rate of equal to or greater than 80%),0.278
C=CC(=O)OCCCCOc1ccc(C#Cc2ccc(NC(=O)c3ccc(OCCCCOC(=O)C=C)cc3)c(C(F)(F)F)c2)cc1 [Compound a-6],38 % by mass,A (a residual rate of equal to or greater than 80%),0.287
C=CC(=O)OCCCCOc1ccc(C(=O)Nc2ccc(C#Cc3ccc4nc(SCCCCOC(=O)C=C)sc4c3)cc2C(F)(F)F)cc1 [Compound a-7],22 % by mass,A (a residual rate of equal to or greater than 80%),0.304
C=CC(=O)OCCCCOc1ccc(C#Cc2ccc(C(=O)Nc3ccc(C#Cc4ccc(OCCCCOC(=O)C=C)cc4)cc3C(F)(F)F)cc2)cc1 [Compound a-8],22 % by mass,A (a residual rate of equal to or greater than 80%),0.370
"C=CC(=O)OCCCCOc1ccc(C(=O)Oc2ccc(C#Cc3ccc(CCCCCCC)cc3)cc2)cc1 [Compound b-1, reference compound]",,C (a residual rate of less than 50%),0.220

# From patent US11603350B2, “Compound, composition, cured object, optically anisotropic body, and reflective film” (FUJIFILM Corporation, priority 2016, dated 2023)
